For 10 compounds, IC50 and MIC results are on record in US10457707B2, “Substituted urea depsipeptide analogs as activators of the CLPP endopeptidase” (priority 2015, dated 2019).

In brackets after ≈: the same amount, converted by molar mass. Read-outs that look alike come from different tables or passages of the source. *1 amine or outer side, *2 acyl side, *3 side chain or, on linkers, in order; H or OH if unused. Where a SMILES comes first, the peptide text is derived from it. Bridges are numbered along the chain shown (N, C = ends). [ ]: non-standard residue; d: D form. The star is where a group is joined. ξ: configuration not given here. Phe(3,5-F2) = N[C@@H](Cc1cc(F)cc(F)c1)C(=O)O; NH(4-OCF3-phenyl) = FC(F)(F)Oc1ccc(N*)cc1; Morpholine(3S-CO) = O=C(O)[C@@H]1COCCN1; Pro(4S-Me) = C[C@@H]1CN[C@H](C(=O)O)C1; Pro(4R-Me) = C[C@H]1CN[C@H](C(=O)O)C1; NMeaThr = CN[C@H](C(=O)O)[C@H](C)O; Hyp = O=C(O)[C@@H]1C[C@@H](O)CN1; NH(4-Et-phenyl) = CCc1ccc(N*)cc1; NH(4-Me-phenyl) = Cc1ccc(N*)cc1; aThr = C[C@H](O)[C@H](N)C(=O)O; Pip = O=C(O)[C@@H]1CCCCN1; NMeA = CN[C@@H](C)C(=O)O; CO = O=C([*:1])[*:2]; X7 = CC/C=C/C(=O)*; ξP = O=C(O)C1CCCN1 Bounds are passed on as bounds.

Assay [1] addresses T1, Sa-ClpP (Staphylococcus aureus, UniProt Q2G036).
T1 construct: made in house; host or cells: E. coli BL21(DE3)
T1 sequence (Q2G036 1-195): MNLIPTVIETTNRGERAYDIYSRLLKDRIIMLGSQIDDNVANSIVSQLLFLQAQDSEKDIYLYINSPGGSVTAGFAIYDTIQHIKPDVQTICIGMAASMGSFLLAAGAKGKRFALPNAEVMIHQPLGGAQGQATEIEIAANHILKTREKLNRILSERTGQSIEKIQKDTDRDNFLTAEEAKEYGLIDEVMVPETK
Nature of the assay: ADEP displacement fluorescence polarization assay (FP probe ADEP 2591). The class given is binding. Put shortly:
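Master mix of 15 μM S. aureus ClpP with 50 nM TAMRA-labelled ADEP 2591 probe in Tris-HCl pH 8.0, 2% DMSO, was pre-equilibrated 1 h, then incubated with compound 120 min at room temperature. Polarization (ex 530, em 579 nm) was normalized to 200 μM ADEP 2378 and DMSO controls; four-parameter fits, triplicate.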

In assay [2] the test system is Enterococcus faecalis, ATCC 33186. Nature of the assay: Minimal inhibitory concentration assay (microbroth dilution). The class given is cell-based. Put shortly: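 CLSI broth microdilution; 2-fold series from 200 μM final; inoculum ~10^5 cfu/mL; 37 °C, aerobic, overnight; visual MIC = lowest conc. without growth. The ClpP-inactivated USA 300 strain is the comparator for ClpP-dependent killing.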

[3] abbreviates: displacement of FP probe ADEP 2591 from Sa-ClpP, read-out: ADEP Displacement IC50.
Where [4] appears, read: Enterococcus faecalis, ATCC33186; read-out: Minimal Inhibitory Concentrations E. faecalis ATCC 33186.
[5] abbreviates: Enterococcus faecalis, ATCC33186, read-out: Minimal Inhibitory Concentrations E. faecalis ATCC 33186.

Consider `C[C@H]1C[C@H]2C(=O)O[C@@H](C)[C@H](NC(=O)[C@H](Cc3cc(F)cc(F)c3)NC(=O)Nc3ccc(OC(F)(F)F)cc3)C(=O)N3CCC[C@H]3C(=O)N3CCOC[C@H]3C(=O)N[C@@H](C)C(=O)N2C1` [Compound 201, (S)-3-(3,5-difluorophenyl)-2-(3-(4-(trifluoromethoxy)phenyl)ureido)-N-((6aS,12S,13S,15aS,17S,21S,23aS)-13,17,21-trimethyl-6,11,15,20,23-pentaoxooctadecahydro-6H,11H,15H-[1,4]oxazino[3,4-i]dipyrrolo[2,1-c:2′,1′-l][1]oxa[4,7,10,13]tetraazacyclohexadecin-12-yl)propanamide] ({NH(4-OCF3-phenyl)-CO}-[Phe(3,5-F2)][aThr]P[Morpholine(3S-CO)]A[Pro(4S-Me)]; ester 2-C), for which the IC50 in assay [1] (setting [3]) is 6.1 ± 0.4 µM. The MIC in assay [2] (setting [4]) came out at 0.098 µM (≈ 0.0862 µg/mL).

With `Cc1ccc(NC(=O)N[C@@H](Cc2cc(F)cc(F)c2)C(=O)N[C@@H]2C(=O)N3CCC[C@H]3C(=O)N(C)[C@@H]([C@H](C)O)C(=O)N[C@@H](C)C(=O)N3C[C@@H](C)C[C@H]3C(=O)O[C@H]2C)cc1` [Compound 202, (S)-3-(3,5-difluorophenyl)-N-((2S,6S,9S,11aS,17S,18S,20aS)-9-((S)-1-hydroxyethyl)-2,6,10,18-tetramethyl-5,8,11,16,20-pentaoxohexadecahydro-1H,5H,16H-dipyrrolo[2,1-c:2′,1′-L][1]oxa[4,7,10,13]tetraazacyclohexadecin-17-yl)-2-(3-(p-tolyl)ureido)propanamide] ({NH(4-Me-phenyl)-CO}-[Phe(3,5-F2)][aThr]P[NMeaThr]A[Pro(4S-Me)]; ester 2-C), the half-inhibitory concentration (IC50) in assay [1] (setting [3]) worked out at 6.6 ± 0.4 µM. In assay [2] (setting [5]), the MIC is 0.049 µM (≈ 0.0398 µg/mL).

In the case of `C[C@H]1C[C@H]2C(=O)O[C@@H](C)[C@H](NC(=O)[C@H](Cc3cc(F)cc(F)c3)NC(=O)Nc3ccc(OC(F)(F)F)cc3)C(=O)N3CCC[C@H]3C(=O)N(C)[C@@H]([C@H](C)O)C(=O)N[C@@H](C)C(=O)N2C1` [Compound 203, (S)-3-(3,5-difluorophenyl)-N-((2S,6S,9S,11aS,17S,18S,20aS)-9-((S)-1-hydroxyethyl)-2,6,10,18-tetramethyl-5,8,11,16,20-pentaoxohexadecahydro-1H,5H,16H-dipyrrolo[2,1-c:2′,1′-l][1]oxa[4,7,10,13]tetraazacyclohexadecin-17-yl)-2-(3-(4-(trifluoromethoxy)phenyl)ureido)propanamide] ({NH(4-OCF3-phenyl)-CO}-[Phe(3,5-F2)][aThr]P[NMeaThr]A[Pro(4S-Me)]; ester 2-C), the IC50 in assay [1] (setting [3]) stood at 6.4 ± 0.5 µM. Besides, the MIC in assay [2] (setting [4]) turned out to be 0.781 µM (≈ 0.689 µg/mL).

In the case of `CCc1ccc(NC(=O)N[C@@H](Cc2cc(F)cc(F)c2)C(=O)N[C@@H]2C(=O)N3CCC[C@H]3C(=O)N(C)[C@@H]([C@H](C)O)C(=O)N[C@@H](C)C(=O)N3C[C@@H](C)C[C@H]3C(=O)O[C@H]2C)cc1` [Compound 204, (S)-3-(3,5-difluorophenyl)-2-(3-(4-ethylphenyl)ureido)-N-((2S,6S,9S,11aS,17S,18S,20aS)-9-((S)-1-hydroxyethyl)-2,6,10,18-tetramethyl-5,8,11,16,20-pentaoxohexadecahydro-1H,5H,16H-dipyrrolo[2,1-c:2′,1′-l][1]oxa[4,7,10,13]tetraazacyclohexadecin-17-yl)propanamide] ({NH(4-Et-phenyl)-CO}-[Phe(3,5-F2)][aThr]P[NMeaThr]A[Pro(4S-Me)]; ester 2-C), in assay [1] (setting [3]), the IC50 turned out to be 7 ± 0.4 µM. Also, in assay [2] (setting [4]), the MIC amounted to 0.195 µM (≈ 0.161 µg/mL).

Take `C[C@@H]1C[C@H]2C(=O)OC[C@H](NC(=O)[C@H](Cc3ccccc3)NC(=O)Nc3ccc(OC(F)(F)F)cc3)C(=O)N3CCC[C@H]3C(=O)N3CCCC[C@H]3C(=O)N[C@@H](C)C(=O)N2C1` [Compound 205]: the IC50 in assay [1] stood at 21.6 ± 1.4 µM. In addition, in assay [2] (E. faecalis ATCC 33186; read-out: Minimal Inhibitory Concentrations E. faecalis ATCC 33186), the MIC stood at 0.02 µM (≈ 0.0166 µg/mL).

For `Cc1ccc(NC(=O)N[C@@H](Cc2ccccc2)C(=O)N[C@H]2COC(=O)[C@@H]3C[C@@H](C)CN3C(=O)[C@H](C)NC(=O)[C@@H]3CCCCN3C(=O)[C@@H]3CCCN3C2=O)cc1C` [Compound 206, (S)—N-((2R,6S,8aS,14aS,20S,23aS)-2,6-dimethyl-5,8,14,19,23-pentaoxooctadecahydro-1H,5H,14H,19H-pyrido[2,1-i]dipyrrolo[2,1-c:2′,1′-l][1]oxa[4,7,10,13]tetraazacyclohexadecin-20-yl)-2-(3-(3,4-dimethylphenyl)ureido)-3-phenylpropanamide], the half-inhibitory concentration (IC50) in assay [1] is 7.1 ± 0.3 µM. Further, in assay [2] (setting [5]), the MIC was < 0.2 µM.

In assay [1], `Cc1ccc(NC(=O)N[C@@H](Cc2cc(F)cc(F)c2)C(=O)N[C@H]2COC(=O)[C@@H]3C[C@@H](C)CN3C(=O)[C@H](C)NC(=O)[C@@H]3CCCCN3C(=O)[C@@H]3CCCN3C2=O)cc1C` [Compound 207, (S)-3-(3,5-difluorophenyl)-N-((2R,6S,8aS,14aS,20S,23aS)-2,6-dimethyl-5,8,14,19,23-pentaoxooctadecahydro-1H,5H,14H,19H-pyrido[2,1-i]dipyrrolo[2,1-c:2′,1′-l][1]oxa[4,7,10,13]tetraazacyclohexadecin-20-yl)-2-(3-(3,4-dimethylphenyl)ureido)propanamide] gave a half-inhibitory concentration (IC50) of 5.2 ± 0.3 µM. Also, the MIC in assay [2] (setting [5]) was < 0.2 µM.

The compound `C[C@@H]1NC(=O)[C@H](C)N(C)C(=O)[C@@H]2CCCN2C(=O)[C@@H](NC(=O)[C@H](Cc2ccccc2)NC(=O)Nc2ccc(OC(F)(F)F)cc2)COC(=O)C2CCCN2C1=O` (stereo partly drawn) [Compound 213, (2S)-3-phenyl-2-(3-(4-(trifluoromethoxy)phenyl)ureido)-N-((6S,9S,11aS,17S)-6,9,10-trimethyl-5,8,11,16,20-pentaoxohexadecahydro-1H,5H,16H-dipyrrolo[2,1-c:2′,1′-l][1]oxa[4,7,10,13]tetraazacyclohexadecin-17-yl)propanamide] ({NH(4-OCF3-phenyl)-CO}-FSP[NMeA]A[ξP]; ester 2-C) yielded an IC50 in assay [1] of 5 ± 0.4 µM. Moreover, the MIC in assay [2] (setting [4]) amounted to 0.39 µM (≈ 0.307 µg/mL).

Regarding `Cc1ccc(NC(=O)N[C@@H](Cc2cc(F)cc(F)c2)C(=O)N[C@@H]2C(=O)N3C[C@H](O)C[C@H]3C(=O)N(C)[C@@H](C)C(=O)N[C@@H](C)C(=O)N3C[C@@H](C)C[C@H]3C(=O)O[C@H]2C)cc1` [Compound 214, (S)-3-(3,5-difluorophenyl)-N-((2S,6S,9S,11aS,13R,17S,18S,20aS)-13-hydroxy-2,6,9,10,18-pentamethyl-5,8,11,16,20-pentaoxohexadecahydro-1H,5H,16H-dipyrrolo[2,1-c:2′,1′-l][1]oxa[4,7,10,13]tetraazacyclohexadecin-17-yl)-2-(3-(p-tolyl)ureido)propanamide] ({NH(4-Me-phenyl)-CO}-[Phe(3,5-F2)][aThr][Hyp][NMeA]A[Pro(4S-Me)]; ester 2-C), the IC50 in assay [1] (setting [3]) worked out at 5.8 ± 0.3 µM. Moreover, the MIC in assay [2] (setting [5]) amounted to 0.195 µM (≈ 0.156 µg/mL).

Consider `CC/C=C/C(=O)N[C@@H](Cc1cc(F)cc(F)c1)C(=O)N[C@@H]1C(=O)N2C[C@H](O)C[C@H]2C(=O)N2CCCC[C@H]2C(=O)N[C@@H](C)C(=O)N2C[C@H](C)C[C@H]2C(=O)O[C@H]1C` [Compound 300] (X7-[Phe(3,5-F2)][aThr][Hyp][Pip]A[Pro(4R-Me)]; ester 2-C), for which the IC50 in assay [1] was determined as 5.94 ± 0.3 µM. The MIC in assay [2] (setting [5]) turned out to be 0.039 µM (≈ 0.0301 µg/mL).
